Measured values as given in ChEMBL document CHEMBL3886950, “Furanone compounds as kinase inhibitors” (2016).

Target: Serine/threonine-protein kinase B-raf (Homo sapiens, UniProt P15056, V600E)
Experiment: LanthaScreen Kinase Assay: The BRAFV600E enzymatic assay was performed using a LanthaScreen kinase assay kit purchased from Life Technologies (Grand Island, N.Y.). The assay was conducted according to the procedure provided in the assay kit. […] The final reaction volume for each reaction was 10 ul. The reaction was stopped by addition of 10 ul of TR-FRET dilution buffer kinase supplemented with kinase quench buffer (10 mM final) and Tb-anti-pMAP2K1 (2 nM final). The plate was further incubated at room temperature for another 60 minutes, and the fluorescent signals were read on Victor 5 (Perkin Elmer) with excitation at 340 nm and emission at 495 and 520 nM. The assay signal was determined as a ratio of FRET-specific signal measured with emission filter at 520 nM to that of the signal measured with Tb-specific emission filter at 495 nM. IC50 value was calculated using appropriate programs in GraphPad Prism by plotting the logarithm of the concentration versus percent inhibition.

Sequence of Serine/threonine-protein kinase B-raf (P15056 2-766 V600E limits assumed): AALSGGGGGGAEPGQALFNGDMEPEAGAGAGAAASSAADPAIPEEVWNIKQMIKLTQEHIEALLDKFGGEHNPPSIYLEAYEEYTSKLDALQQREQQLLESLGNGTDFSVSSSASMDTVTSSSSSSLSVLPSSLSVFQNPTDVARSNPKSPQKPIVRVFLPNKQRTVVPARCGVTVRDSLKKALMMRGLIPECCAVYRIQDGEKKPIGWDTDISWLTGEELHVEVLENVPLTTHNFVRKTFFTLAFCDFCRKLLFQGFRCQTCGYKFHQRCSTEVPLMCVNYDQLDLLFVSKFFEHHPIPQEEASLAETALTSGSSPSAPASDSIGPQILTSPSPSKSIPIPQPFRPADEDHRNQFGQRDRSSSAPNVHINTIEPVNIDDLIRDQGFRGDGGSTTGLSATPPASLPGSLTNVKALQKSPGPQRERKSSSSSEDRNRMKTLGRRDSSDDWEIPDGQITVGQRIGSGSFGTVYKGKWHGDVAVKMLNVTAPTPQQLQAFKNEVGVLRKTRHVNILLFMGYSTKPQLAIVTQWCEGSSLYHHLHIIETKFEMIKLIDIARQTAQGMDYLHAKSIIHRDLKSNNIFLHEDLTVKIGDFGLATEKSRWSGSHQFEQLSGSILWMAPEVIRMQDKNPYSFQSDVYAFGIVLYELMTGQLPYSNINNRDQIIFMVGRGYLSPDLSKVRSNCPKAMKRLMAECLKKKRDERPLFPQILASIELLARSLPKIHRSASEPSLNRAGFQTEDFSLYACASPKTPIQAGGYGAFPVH

**Q.** For `Nc1nccc(C2=C(c3cccc(NS(=O)(=O)c4c(F)cccc4F)c3F)C(=O)C3(CCCC3)O2)n1`, which IC50 is on record?
**A.** Its IC50 is 29 nM.

**Q.** `CC1(C)OC(c2ccnc(N)n2)=C(c2cc(Cl)cc(NS(=O)(=O)c3c(F)cccc3F)c2F)C1=O` was tested. Which IC50 did it give?
**A.** Its IC50 is 5.5 nM.

**Q.** With `CC1(C)OC(c2ccnc(N)n2)=C(c2cc(Cl)cc(NS(=O)(=O)c3ccc(F)cc3F)c2F)C1=O` as the molecule, how does the IC50 read?
**A.** Its IC50 is 10 nM.
